Tested on: SJ-39 retinoblastoma cells
Assay: Efficacy in human orthotopic xenograft mouse model of retinoblastoma (event-free survival)
Format: in vivo
Experimental: Preclinical testing was carried out in human orthotopic xenograft mice using the methods previously described ([10], [11]). SJ-39 retinoblastoma cells were injected into the vitreous of 30 immunocompromised mice (J:NU, The Jackson Laboratory (Bar Harbor, ME, USA)): 10 were untreated and 20 received subconjunctival injections of R406 in solution formulation (R406^oc) and systemic topotecan (TPT^syst) combination therapy administered over a 5-day course every third week as follows: 10 μL R406 per eye at a concentration of […] (8–9 nanomoles/eye) on day 1, and TPT^syst (0.7 mg/kg per dose, i.p.) on days 1 to 5 (see Fig. 1a). Mice were scheduled to receive six courses of therapy (18 weeks total). Before each course of therapy, mice were examined and intraocular pressure (IOP) was read as previously described ([10], [11]). If intraocular pressure was elevated above normal (IOP > 20) or eye rupture was observed, mice were taken off study and time to event was recorded. At the completion of the study event-free survival (EFS) was analyzed for the R406^oc/TPT^syst treated and untreated groups.
Since R406 is the SYK inhibitor farthest along in clinical development (Phase 3), and therefore the most likely compound to be tested clinically against retinoblastoma, we decided to focus upon its evaluation. In order to test the efficacy of R406 in vivo, we developed a solution formulation using FDA approved adjuvants for ophthalmic applications ([11]). The maximum concentration of R406 in solution was approximately 900 μM and R406 was chemically stable in formulation for 48 h at room temperature (Table S3 and Fig. S2). Next, we performed in vivo efficacy studies using the solution formulation of R406 in combination with systemic topotecan (standard for our preclinical evaluation of new retinoblastoma agents ([11]) following a clinically relevant dose and schedule as was previously done for nutlin-3a and BAY-61-3606 ([6], [11]). SJ-39 retinoblastoma cells were injected into the vitreous of 30 immunocompromised mice and animals were randomized into two treatment groups: 20 received subconjunctival injections of R406 in solution formulation (R406^oc) and systemic topotecan (TPT^syst) combination therapy administered over a 5-day course every third week (see Fig. 1a) and 10 were untreated. Animals were scheduled to receive 6 courses of treatment (18 weeks total), but no animal completed the entire 6 courses. All animals were taken off study by 63 days due to elevated intraocular pressure (IOP > 20) or eye rupture. Event free survival (EFS) was analyzed for the two groups (Fig. 1b). […]

For `COc1cc(Nc2ncc(F)c(Nc3ccc4c(n3)NC(=O)C(C)(C)O4)n2)cc(OC)c1OC` [R406], the “proportion of event free survivals at 21 days” value (subconjunctival R406 solution 8–9 nmol/eye day 1 + systemic topotecan 0.7 mg/kg i.p. days 1-5, every third week, n=20, untreated 50%) was 90%, the “time by which all animals were taken off study (IOP > 20 or eye rupture)” value (subconjunctival R406 solution + systemic topotecan) was at most 63 days and the “proportion of event free survivals at 42 days” value (subconjunctival R406 solution + systemic topotecan, untreated 0%) was 30%. For the same compound, the “Median event free survival” value (subconjunctival R406 solution + systemic topotecan, untreated 32.5 days, log-rank p = 0.005) was 42 days.

— article PMC4213378, “Pharmacokinetics and Efficacy of the Spleen Tyrosine Kinase Inhibitor R406 after Ocular Delivery for Retinoblastoma” (Pharmaceutical Research, 2014)
